Among the data in ChEMBL document CHEMBL3611972, “Leishmanicidal, antiproteolytic, and mutagenic evaluation of alkyltriazoles and alkylphosphocholines” (Eur J Med Chem, 2015) are Activity and Activity_index values, retold here.

Data set [1] is described as follows: Mutagenicity in CHOK1 cells assessed as induction of chromosomal DNA mutation by measuring micronuclei level at 6.41 to 25.63 incubated for 3 hrs by cytokinesis-block micronucleus assay. In kind it is toxicity, cell-based, Cricetulus griseus. The conditions noted are these: chinese hamster, cho-k1, 3 h.
Data set [2] in a line: Mutagenicity in CHOK1 cells assessed as induction of chromosomal DNA mutation by measuring nuclear division index level at 6.41 to 25.63 incubated for 3 hrs by fluorescence microscopy. In kind it is toxicity, cell-based, Cricetulus griseus. The conditions noted are these: chinese hamster, cho-k1, 3 h.
Data set [3] concerns Salmonella typhimurium. The data set is described as follows: Mutagenicity in Salmonella typhimurium TA98 assessed as mutagenicity index at 150.98 uM/plate incubated for 90 mins at 37 degC in absence of liver S9 fractions by Ames test relative to untreated control. The conditions noted are these: salmonella enterica subsp. enterica serovar typhimurium, 1.5 h. Format: toxicity, organism-based. In general terms: In the Ames test, an excess of revertant colonies over the control signals mutagenicity.

Data set [4] has as its system Salmonella typhimurium. Briefly: Mutagenicity in Salmonella typhimurium TA98 assessed as mutagenicity index at 296.15 uM/plate incubated for 90 mins at 37 degC in absence of liver S9 fractions by Ames test relative to untreated control. In kind it is toxicity, organism-based. The conditions noted are these: salmonella enterica subsp. enterica serovar typhimurium, 1.5 h.

For data set [5], the system named is Salmonella typhimurium. Briefly: Mutagenicity in Salmonella typhimurium TA98 assessed as mutagenicity index at 570.37 uM/plate incubated for 90 mins at 37 degC in absence of liver S9 fractions by Ames test relative to untreated control. Format: toxicity, organism-based. The conditions noted are these: salmonella enterica subsp. enterica serovar typhimurium, 1.5 h.

The subject of data set [6] is Salmonella typhimurium. Briefly: Mutagenicity in Salmonella typhimurium TA98 assessed as mutagenicity index at 296.15 uM/plate incubated for 90 mins at 37 degC in presence of liver S9 fractions by Ames test relative to untreated control. The conditions noted are these: salmonella enterica subsp. enterica serovar typhimurium, s9, 1.5 h. Format: toxicity, organism-based.

The test system of data set [7] is Salmonella typhimurium. Briefly: Mutagenicity in Salmonella typhimurium TA98 assessed as mutagenicity index at 570.37 uM/plate incubated for 90 mins at 37 degC in presence of liver S9 fractions by Ames test relative to untreated control. In kind it is toxicity, organism-based. The conditions noted are these: salmonella enterica subsp. enterica serovar typhimurium, s9, 1.5 h.

Data set [8] has as its system Salmonella typhimurium. Briefly: Mutagenicity in Salmonella typhimurium TA100 assessed as mutagenicity index at 150.98 uM/plate incubated for 90 mins at 37 degC in absence of liver S9 fractions by Ames test relative to untreated control. The conditions noted are these: salmonella enterica subsp. enterica serovar typhimurium, 1.5 h. Format: toxicity, organism-based.

Data set [9] concerns Salmonella typhimurium. Briefly: Mutagenicity in Salmonella typhimurium TA100 assessed as mutagenicity index at 570.37 uM/plate incubated for 90 mins at 37 degC in absence of liver S9 fractions by Ames test relative to untreated control. In kind it is toxicity, organism-based. The conditions noted are these: salmonella enterica subsp. enterica serovar typhimurium, 1.5 h.
Data set [10] deals with Salmonella typhimurium. The data set is described as follows: Mutagenicity in Salmonella typhimurium TA100 assessed as mutagenicity index at 700.00 uM/plate incubated for 90 mins at 37 degC in absence of liver S9 fractions by Ames test relative to untreated control. In kind it is toxicity, organism-based. The conditions noted are these: salmonella enterica subsp. enterica serovar typhimurium, 1.5 h.

Data set [11] deals with Salmonella typhimurium. The data set is described as follows: Mutagenicity in Salmonella typhimurium TA100 assessed as mutagenicity index at 150.98 uM/plate incubated for 90 mins at 37 degC in presence of liver S9 fractions by Ames test relative to untreated control. The conditions noted are these: salmonella enterica subsp. enterica serovar typhimurium, s9, 1.5 h. Format: toxicity, organism-based.

For data set [12], the system named is Salmonella typhimurium. The data set is described as follows: Mutagenicity in Salmonella typhimurium TA100 assessed as mutagenicity index at 435.85 uM/plate incubated for 90 mins at 37 degC in presence of liver S9 fractions by Ames test relative to untreated control. Format: toxicity, organism-based. The conditions noted are these: salmonella enterica subsp. enterica serovar typhimurium, s9, 1.5 h.

In data set [13] the test system is Salmonella typhimurium. Briefly: Mutagenicity in Salmonella typhimurium TA97a assessed as mutagenicity index at 435.85 uM/plate incubated for 90 mins at 37 degC in absence of liver S9 fractions by Ames test relative to untreated control. In kind it is toxicity, organism-based. The conditions noted are these: salmonella enterica subsp. enterica serovar typhimurium, 1.5 h.

In data set [14] the test system is Salmonella typhimurium. Briefly: Mutagenicity in Salmonella typhimurium TA97a assessed as mutagenicity index at 296.15 uM/plate incubated for 90 mins at 37 degC in presence of liver S9 fractions by Ames test relative to untreated control. In kind it is toxicity, organism-based. The conditions noted are these: salmonella enterica subsp. enterica serovar typhimurium, s9, 1.5 h.

Data set [15] concerns Salmonella typhimurium. Briefly: Mutagenicity in Salmonella typhimurium TA102 assessed as mutagenicity index at 700.00 uM/plate incubated for 90 mins at 37 degC in presence of liver S9 fractions by Ames test relative to untreated control. In kind it is toxicity, organism-based. The conditions noted are these: salmonella enterica subsp. enterica serovar typhimurium, s9, 1.5 h.

In data set [16] the test system is Salmonella typhimurium. Briefly: Mutagenicity in Salmonella typhimurium TA98 assessed as mutagenicity index at 905.66 uM/plate incubated for 90 mins at 37 degC in absence of liver S9 fractions by Ames test relative to control. In kind it is toxicity, organism-based. The conditions noted are these: salmonella enterica subsp. enterica serovar typhimurium, 1.5 h.

Data set [17] has as its system Salmonella typhimurium. The data set is described as follows: Mutagenicity in Salmonella typhimurium TA98 assessed as mutagenicity index at 616.38 uM/plate incubated for 90 mins at 37 degC in presence of liver S9 fractions by Ames test relative to control. Format: toxicity, organism-based. The conditions noted are these: salmonella enterica subsp. enterica serovar typhimurium, s9, 1.5 h.

The test system of data set [18] is Salmonella typhimurium. Briefly: Mutagenicity in Salmonella typhimurium TA100 assessed as mutagenicity index at 905.66 uM/plate incubated for 90 mins at 37 degC in absence of liver S9 fractions by Ames test relative to control. In kind it is toxicity, organism-based. The conditions noted are these: salmonella enterica subsp. enterica serovar typhimurium, 1.5 h.

Data set [19] deals with Salmonella typhimurium. The data set is described as follows: Mutagenicity in Salmonella typhimurium TA100 assessed as mutagenicity index at 1185.19 uM/plate incubated for 90 mins at 37 degC in absence of liver S9 fractions by Ames test relative to control. In kind it is toxicity, organism-based. The conditions noted are these: salmonella enterica subsp. enterica serovar typhimurium, 1.5 h.

Data set [20] relates to Salmonella typhimurium. Briefly: Mutagenicity in Salmonella typhimurium TA100 assessed as mutagenicity index at 1185.19 uM/plate incubated for 90 mins at 37 degC in presence of liver S9 fractions by Ames test relative to control. Format: toxicity, organism-based. The conditions noted are these: salmonella enterica subsp. enterica serovar typhimurium, s9, 1.5 h.
For data set [21], the system named is Salmonella typhimurium. The data set is described as follows: Mutagenicity in Salmonella typhimurium TA97a assessed as mutagenicity index at 1185.19 uM/plate incubated for 90 mins at 37 degC in absence of liver S9 fractions by Ames test relative to control. In kind it is toxicity, organism-based. The conditions noted are these: salmonella enterica subsp. enterica serovar typhimurium, 1.5 h.

Data set [22] relates to Salmonella typhimurium. Briefly: Mutagenicity in Salmonella typhimurium TA97a assessed as mutagenicity index at 905.66 uM/plate incubated for 90 mins at 37 degC in presence of liver S9 fractions by Ames test relative to control. Format: toxicity, organism-based. The conditions noted are these: salmonella enterica subsp. enterica serovar typhimurium, s9, 1.5 h.
Data set [23] has as its system Salmonella typhimurium. Briefly: Mutagenicity in Salmonella typhimurium TA102 assessed as mutagenicity index at 905.66 uM/plate incubated for 90 mins at 37 degC in absence of liver S9 fractions by Ames test relative to control. In kind it is toxicity, organism-based. The conditions noted are these: salmonella enterica subsp. enterica serovar typhimurium, 1.5 h.
The test system of data set [24] is Salmonella typhimurium. The data set is described as follows: Mutagenicity in Salmonella typhimurium TA102 assessed as mutagenicity index at 1185.19 uM/plate incubated for 90 mins at 37 degC in presence of liver S9 fractions by Ames test relative to control. In kind it is toxicity, organism-based. The conditions noted are these: salmonella enterica subsp. enterica serovar typhimurium, s9, 1.5 h.

For data set [25], the system named is Salmonella typhimurium. The data set is described as follows: Mutagenicity in Salmonella typhimurium TA102 assessed as mutagenicity index at 1454.55 uM/plate incubated for 90 mins at 37 degC in presence of liver S9 fractions by Ames test relative to control. In kind it is toxicity, organism-based. The conditions noted are these: salmonella enterica subsp. enterica serovar typhimurium, s9, 1.5 h.

Data set [26] concerns Salmonella typhimurium. The data set is described as follows: Mutagenicity in Salmonella typhimurium TA98 assessed as mutagenicity index at 616.38 uM/plate incubated for 90 mins at 37 degC in absence of liver S9 fractions by Ames test relative to control. Format: toxicity, organism-based. The conditions noted are these: salmonella enterica subsp. enterica serovar typhimurium, 1.5 h.

`CS(=O)(=O)OCCCCCCCCCCCCn1cc(CCCO)nn1`: the Activity entry in data set [1] and in data set [2] was “Non-toxic” throughout. Further, the Activity_index stood at 1 in the data set on Salmonella typhimurium [3]; 1.2 with Salmonella typhimurium [4]; 1.3 with Salmonella typhimurium [5]; 1.1 in the data set with Salmonella typhimurium [6]; 0.8 in the data set on Salmonella typhimurium [7]; 1.1 in the data set with Salmonella typhimurium [8]. Further, the Activity_index in the data set with Salmonella typhimurium [9] was 1.3; with Salmonella typhimurium [10] it was 1; in the data set with Salmonella typhimurium [11], 0.9; with Salmonella typhimurium [12], 0.7; in the data set on Salmonella typhimurium [13], 1.2; in the data set with Salmonella typhimurium [14] it was 0.9. In addition, the Activity_index in the data set on Salmonella typhimurium [15] is 1.4.
As for `CCOC(=O)c1cn(CCCCCCCCCOS(C)(=O)=O)nn1`, the Activity_index with Salmonella typhimurium [16] stood at 1.2; in the data set on Salmonella typhimurium [17], 0.8; in the data set with Salmonella typhimurium [18] it was 1.2; with Salmonella typhimurium [19], 1.3; in the data set with Salmonella typhimurium [20] it was 0.9; in the data set on Salmonella typhimurium [21] it was 1.3. Moreover, the Activity_index was 0.9 in the data set with Salmonella typhimurium [22]; 0.9 with Salmonella typhimurium [23]; 1.4 in the data set with Salmonella typhimurium [24]; 1.2 in the data set on Salmonella typhimurium [25]; 1.2 with Salmonella typhimurium [26].
